Here are results for 17 compounds from patent US20100267827A1, “PHENYL-PRENYL-ETHER DERIVATIVES FOR THE TREATMENT OF COGNITIVE, NEURODEGENERATIVE OR NEURONAL DISEASES OR DISORDERS” (NOSCIRA, S.A., priority 2006, published 2010).

The target in assay [1] is recombinant human glycogen synthase kinase 3 beta (Homo sapiens, UniProt P49841). The experiment in a line: GSK-3 beta inhibition assay. It is filed as biochemical. Conditions: 0.5 h, percentage of enzyme activity remaining; for remaining activity at 25 µM: 25 μM compound; for remaining activity at 50 µM: 50 μM compound. As to the method:
The GSK-3 beta activity of the compounds of formula (I) according to the present invention was determined by incubation of a mixture of recombinant human GSK-3 enzyme, a phosphate source and GSK-3 substrate in the presence and in the absence of the corresponding test compound, and by measuring the GSK-3 activity of this mixture. The compounds where tested at final concentrations of 25 and 50 μM.
Recombinant human glycogen synthase kinase 3 beta was assayed in MOPS 11 mM, pH 7.4, EDTA 0.2 mM, EGTA 1.25 mM, MgCl2 26.25 mM and sodium orthovanadate 0.25 mM in the presence of 62.5 μM of Phospho-Glycogen Synthase Peptide-2 (GS-2), 0.5 μCi gamma-^33P-ATP and unlabelled ATP at a final concentration of 12.5 μM. The final assay volume was 20 μl. After incubation for 30 minutes at 30° C., 15 μl aliquots were spotted onto P81 phosphocellulose papers. Filters were washed four times for at least 10 minutes each and counted with 1.5 ml of scintillation cocktail in a scintillation counter.
(§1) The compounds of formula (I) of the present invention where submitted to the above indicated assays, in order to determine both their GSK-3 inhibition activity and BACE activity inhibition. The results are indicated in Table I, in percentage of the respective enzyme activity.

Assay [2] addresses T1, rhBACE-1 β-Secretase recombinant human (Homo sapiens, UniProt P56817).
T1 construct: purchased R&D Systems 931-AS
Briefly: BACE assay (FRET). The class given is biochemical. As to conditions: percentage of enzyme activity remaining.
Text: The aim of this assay is to determine if a compound, either synthetic or of marine origin, is a BACE-1 inhibitor, to avoid the formation of Aβ. This assay is based on FRET technology (Fluorescence Resonance Energy Transfer). FRET is used to measure cleavage of a peptide substrate, among other uses. […] When a substrate peptide cleavage occurs, the energy balance is broken and all the donor fluorescence can be observed. The increase in fluorescence is linearly related to the rate of proteolysis (Gordon, G W et al., 1998). In this assay the reaction occurs between an enzyme, purified BACE-1, and a fluorogenic peptidic substrate who present the “Swedish mutation”. The peptide cleavage by BACE-1 produces fluorescence energy and enzymatic activity can be quantified.
The reagents which are used in this assay are the following:
rhBACE-1 β-Secretase recombinant human (R&D Systems. Ref. 931-AS).
Fluorogenic Peptide Substrate IV (R&D Systems. Ref. ES004).
Beta-SECRETASE INHIBITOR H-4848. (BACHEM. Ref. H-4848.0001).
The assay is carried out in a 96 wells microplate. The final concentration of substrate is 3.5 μM per well, and the enzyme concentration is 0.5 μg/ml. The final volume of the assay is 100 μl per well and all reagents are diluted in Reaction Buffer. The compounds are tested at a concentration of 10^−5 and 10^−6 M. The control in the assay is the commercial inhibitor R-Secretase inhibitor H-4848 from BACHEM, which is tested at 300 nM. All the samples and controls are studied by duplicate.
The plate is mixed gently and changes in the fluorescence are measured using a fluorimeter plate reader, with 320 nm excitation filter and 405 nm emission filter. The temperature should be preferably maintained between 25 and 30° C. Measurements are carried out every ten minutes during an hour. The first measure is subtracted from the last to calculate the fluorescence increase, evaluating the enzymatic activity. The 100% activity is calculated as the mean of the results of wells without sample or inhibitor.
In the cases where abnormal effects in fluorescence were detected, BACE inhibition activity was assayed using BACE-1 (beta-Secretase) FRET ASSAY KIT (Invitrogen, Ref. P2985). Fluorescence was measured with a fluorimeter plate reader, with 544 nm excitation filter and 580 nm emission filter.
as §1

T1 sequence (P56817 46-457 limits assumed): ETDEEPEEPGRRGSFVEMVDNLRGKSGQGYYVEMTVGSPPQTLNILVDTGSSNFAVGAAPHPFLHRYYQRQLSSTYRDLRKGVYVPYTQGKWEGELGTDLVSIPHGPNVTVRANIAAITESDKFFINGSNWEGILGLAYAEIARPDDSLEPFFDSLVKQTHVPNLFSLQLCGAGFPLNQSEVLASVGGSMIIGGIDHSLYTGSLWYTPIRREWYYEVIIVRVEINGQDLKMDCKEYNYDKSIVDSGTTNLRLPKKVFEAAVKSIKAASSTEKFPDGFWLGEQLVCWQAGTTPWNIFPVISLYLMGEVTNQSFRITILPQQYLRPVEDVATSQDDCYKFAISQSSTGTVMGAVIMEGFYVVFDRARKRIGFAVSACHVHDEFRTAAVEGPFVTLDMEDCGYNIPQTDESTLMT
Chain of recombinant human glycogen synthase kinase 3 beta (P49841 whole entry): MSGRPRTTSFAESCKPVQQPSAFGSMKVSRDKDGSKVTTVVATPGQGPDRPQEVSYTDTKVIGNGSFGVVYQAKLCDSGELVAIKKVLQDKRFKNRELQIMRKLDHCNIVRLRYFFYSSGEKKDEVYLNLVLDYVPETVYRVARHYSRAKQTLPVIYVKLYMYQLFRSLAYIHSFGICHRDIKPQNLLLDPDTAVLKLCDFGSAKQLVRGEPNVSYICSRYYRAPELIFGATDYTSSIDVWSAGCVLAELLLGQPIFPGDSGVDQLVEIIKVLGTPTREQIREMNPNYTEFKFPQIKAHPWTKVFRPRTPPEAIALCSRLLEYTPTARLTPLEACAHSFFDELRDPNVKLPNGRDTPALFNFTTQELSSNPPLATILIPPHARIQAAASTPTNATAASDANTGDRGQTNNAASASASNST

Usually remaining activity stands for the share of the control activity or signal that is left under treatment. With `COC(=O)c1ccc(OC)c(OC/C=C(\C)CCC=C(C)C)c1` [Compound 2, 3-(3,7-Dimethyl-octa-2,6-dienyloxy)-4-methoxy-benzoic acid methyl ester], the remaining activity at 25 µM in assay [1] came to 88.1%. Moreover, in assay [1], the remaining activity at 50 µM was 68%. Moreover, the “% of BACE activity” value is given as 100% in assay [2] (1 μM compound) and 18.5 ± 12.1% in assay [2] (10 μM compound).
In the same order, the values of `COC(=O)c1cccc(OC/C=C(\C)CCC=C(C)C)c1` [Compound 5] are 94.4%, 80.7%, 13.3% and 0%.
In the same order, the values of `CC(C)=CCC/C(C)=C/COc1cccc(C(=O)O)c1` [Compound 6] are 70.3%, 80%, 87.5 ± 17% and 36.5 ± 38%.
In the same order, the values of `COC(=O)c1ccc(N)c(OC/C=C(\C)CCC=C(C)C)c1` [Compound 8, 4-Amino-3-(3,7-dimethyl-octa-2,6-dienyloxy)-benzoic acid methyl ester] are 85.6%, 71%, 100% and 81 ± 8%.
On to `COC(=O)c1ccc(N)c(OC/C=C(\C)CC/C=C(\C)CCC=C(C)C)c1` [Compound 9, 4-Amino-3-(3,7,11-trimethyl-dodeca-2,6,10-trienyloxy)-benzoic acid methyl ester], for which, in assay [1], the remaining activity at 25 µM was 91.7% and the remaining activity at 50 µM was 59.5%. Further, the “% of BACE activity” value in assay [2] (1 μM compound) is recorded as 100%. Further, the “% of BACE activity” value in assay [2] (10 μM compound) came to 80 ± 13%.
On the same counts, the results for `COC(=O)c1ccc(OC)c(OC/C=C(\C)CCC=C(C)C)c1C/C=C(\C)CCC=C(C)C` [Compound 10] are 56%, 19.5%, 86.5 ± 5% and 82 ± 10%.
On the same counts, the results for `COc1ccc(C(=O)OC/C=C(\C)CCC=C(C)C)cc1OC/C=C(\C)CCC=C(C)C` [Compound 11, 3-(3,7-Dimethyl-octa-2,6-dienyloxy)-4-methoxy-benzoic acid 3,7-dimethyl-octa-2,6-dienyl ester] are 84.8%, 58.2%, 48 ± 2% and 8 ± 3%.
On the same counts, the results for `COc1ccc(C(=O)NC/C=C(\C)CCC=C(C)C)cc1OC/C=C(\C)CCC=C(C)C` [Compound 12, N-(3,7-Dimethyl-octa-2,6-dienyl)-3-(3,7-dimethyl-octa-2,6-dienyloxy)-4-methoxy-benzamide] are 47.5%, 27.9%, 99 ± 7% and 42 ± 18%.
As to `COc1ccc(C(=O)OCC=C(C)C)cc1OC/C=C(\C)CCC=C(C)C` [Compound 13], in assay [1], the remaining activity at 25 µM was 54.6% and the remaining activity at 50 µM stood at 7.36%. Further, in assay [2] (1 μM compound), the “% of BACE activity” value is listed as 49 ± 5%. Besides, the “% of BACE activity” value in assay [2] (10 μM compound) was found to be 0%.
On the same counts, the results for `CC(C)=CCC/C(C)=C/CC/C(C)=C/COc1cc(C(=O)O)ccc1N` [Compound 17, 4-Amino-3-(3,7,11-trimethyl-dodeca-2,6,10-trienyloxy)-benzoic acid] are 90.4%, 65.5%, 100% and 79 ± 13%.
For the compound `COC(=O)c1ccc(NC(C)=O)c(OC/C=C(\C)CCC=C(C)C)c1` [Compound 19, 4-Acetylamino-3-(3,7-dimethyl-octa-2,6-dienyloxy)-benzoic acid methyl ester], in assay [1], the remaining activity at 50 µM was found to be 85.1%. Further, the “% of BACE activity” value in assay [2] (1 μM compound) was 3.5 ± 5%; in assay [2] (10 μM compound), 0%.
On to `COC(=O)c1ccc(NC(C)=O)c(OC/C=C(\C)CC/C=C(\C)CCC=C(C)C)c1` [Compound 20], for which, in assay [1], the remaining activity at 25 µM came out at 74.4% and the remaining activity at 50 µM was found to be 40%. Further, the “% of BACE activity” value in assay [2] (1 μM compound) is listed as 2 ± 4.5%. In assay [2] (10 μM compound), the “% of BACE activity” value was found to be 0%.
On the same counts, the results for `CC(=O)Nc1ccc(C(=O)O)cc1OC/C=C(\C)CC/C=C(\C)CCC=C(C)C` [Compound 21, 4-Acetylamino-3-(3,7,11-trimethyl-dodeca-2,6,10-trienyloxy)-benzoic acid] are 90%, 57.5%, 68.5 ± 0.7% and 29 ± 10%.
On the same counts, the results for `COCOC(=O)c1ccc(OC)c(OC/C=C(\C)CCC=C(C)C)c1` [Compound 23, 3-(3,7-Dimethyl-octa-2,6-dienyloxy)-4-methoxy-benzoic acid methoxymethyl ester] are 53%, 18.6%, 61 ± 133% and 0%.
On the same counts, the results for `CC(C)=CCC/C(C)=C/CC/C(C)=C/COc1ccc(C(=O)O)cc1OC/C=C(\C)CC/C=C(\C)CCC=C(C)C` [Compound 24, 3,4-Bis-(3,7,11-trimethyl-dodeca-2,6,10-trienyloxy)-benzoic acid] are 12.4%, 4.55%, 30 ± 7% and 26 ± 13%.
Take `CCOC(=O)c1ccc(O)c(OC/C=C(\C)CCC=C(C)C)c1` [Compound 27]: the remaining activity at 25 µM in assay [1] was found to be 48.3%. Further, the remaining activity at 50 µM in assay [1] came to 7.61%. The figures for the “% of BACE activity” value in assay [2] (1 μM compound) and in assay [2] (10 μM compound) were 100% and 50 ± 16%, respectively.
On the same counts, the results for `CC(C)=CCC/C(C)=C/COc1cc(C(=O)O)ccc1O` [Compound 28] are 90.8%, 95.7%, 100% and 89 ± 6%.
